Series [1] addresses T1, AheGH1 (Paenalicyclobacillus herbarius, UniProt A0A8I3B065).
T1 construct: codon-optimised synthetic gene, C-terminal poly-His tag (pCH93b), E. coli BL21(DE3)
T1 sequence (A0A8I3B065 1-452): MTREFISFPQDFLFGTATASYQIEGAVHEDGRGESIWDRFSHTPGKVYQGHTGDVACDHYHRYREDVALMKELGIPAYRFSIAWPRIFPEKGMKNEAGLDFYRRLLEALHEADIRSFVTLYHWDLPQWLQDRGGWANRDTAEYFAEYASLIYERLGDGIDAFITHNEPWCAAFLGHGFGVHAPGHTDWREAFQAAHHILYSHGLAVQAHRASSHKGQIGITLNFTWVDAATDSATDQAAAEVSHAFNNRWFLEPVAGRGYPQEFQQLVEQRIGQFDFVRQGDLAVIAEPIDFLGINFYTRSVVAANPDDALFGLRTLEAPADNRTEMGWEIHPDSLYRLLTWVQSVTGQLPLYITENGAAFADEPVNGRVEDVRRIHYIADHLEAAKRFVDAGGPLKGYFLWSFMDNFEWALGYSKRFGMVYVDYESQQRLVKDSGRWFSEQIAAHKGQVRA
Put plainly: spectrophotometric pNPG hydrolysis at […] nm. The format is biochemical. Particulars: 10 mM pNPG, 50 mM HEPES, pH 7.4, 25 °C; product inhibitor.

In series [2] the target is T1, AheGH1. As to the kind of experiment: spectrophotometric p-nitrophenol release at […] nm, substrate inhibition fit. It counts as biochemical. To be noted: 50 mM HEPES, pH 7.4, 25 °C; substrate inhibition constant.
Substrate in series [3]: O=[N+]([O-])c1ccc(O[C@@H]2O[C@H](CO)[C@@H](O)[C@H](O)[C@H]2O)cc1
Put plainly: purified protein. To be noted: 50 mM HEPES, pH 7.4, 25 °C.

For the molecule `OC[C@H]1OC(O)[C@H](O)[C@@H](O)[C@@H]1O` (stereo partly shown) [glucose], the “% activity retained at 10 % (w/v) glucose” value in series [1] is 65%.
The molecule `O=[N+]([O-])c1ccc(O[C@@H]2O[C@H](CO)[C@@H](O)[C@H](O)[C@H]2O)cc1` [pNPG, p‐nitrophenyl‐β‐D‐glucopyranoside] had a K i in series [2] of 37 ± 6 mM.

B1: AheGH1 (Paenalicyclobacillus herbarius) (protein)
chain: MTREFISFPQDFLFGTATASYQIEGAVHEDGRGESIWDRFSHTPGKVYQGHTGDVACDHYHRYREDVALMKELGIPAYRFSIAWPRIFPEKGMKNEAGLDFYRRLLEALHEADIRSFVTLYHWDLPQWLQDRGGWANRDTAEYFAEYASLIYERLGDGIDAFITHNEPWCAAFLGHGFGVHAPGHTDWREAFQAAHHILYSHGLAVQAHRASSHKGQIGITLNFTWVDAATDSATDQAAAEVSHAFNNRWFLEPVAGRGYPQEFQQLVEQRIGQFDFVRQGDLAVIAEPIDFLGINFYTRSVVAANPDDALFGLRTLEAPADNRTEMGWEIHPDSLYRLLTWVQSVTGQLPLYITENGAAFADEPVNGRVEDVRRIHYIADHLEAAKRFVDAGGPLKGYFLWSFMDNFEWALGYSKRFGMVYVDYESQQRLVKDSGRWFSEQIAAHKGQVRA
On to B1, for which, in series [3], the Km is 1400 ± 100 µM and the kcat stood at 2.7 ± 0.1 s⁻¹.

Source of the values: publication PMC8048572, “Release of Soybean Isoflavones by Using a β‐Glucosidase from Alicyclobacillus herbarius” (Chembiochem, 2020).
